Active and inactive are the calls of the source. The calls are words filed in the database; no cut-off is given here.

Data set [1] concerns ECV-304. Kind of data set: Membrane permeabilization effect on human ECV304 cells up to 12 uM measured every 15 secs for 3 hrs by real time impedance-based plate reader analysis. The data set is classed as functional, cell-based.
Data set [2] deals with ECV-304. Kind of data set: Membrane permeabilization effect on lysosome of human ECV304 cells assessed as induction of membrane lysis up to 6 uM after 1 hr by N-Acetylglucosaminidase release assay. In kind it is functional, cell-based.
For data set [3], the system named is ECV-304. Kind of data set: Membrane permeabilization effect on human ECV304 cells assessed as induction of membrane lysis at 48 uM after 1 hr. In kind it is functional, cell-based.
Data set [4] concerns ECV-304. Kind of data set: Membrane permeabilization effect on human ECV304 cells assessed as increase in propidium iodide uptake at 24 uM after 1 hr by FACS flow cytometric analysis. The data set is classed as functional, cell-based.
The nature of data set [5]: Hemolytic activity against human RBC at 24 uM after 30 mins relative to control. The note with it: red blood cells (RBC), read-out: Activity. The data set is classed as ADME, cell-based, Erythrocyte.
Data set [6] in a line: Hemolytic activity against human RBC at 48 uM after 30 mins. The data set is classed as ADME, cell-based. Conditions: erythrocyte, 0.5 h.
A short description of data set [7]: Hemolytic activity against human RBC up to 12 uM after 30 mins. The data set is classed as ADME, cell-based. Conditions: erythrocyte, 0.5 h.
Data set [8] has as its system ECV-304. Briefly: Membrane permeabilization effect on human ECV304 cells assessed as propidium iodide uptake at 3 to 48 uM after 1 hr by FACS flow cytometric analysis. In kind it is functional, cell-based. On the technique in general: A flow cytometer gives signals particle by particle.
The subject of data set [9] is ECV-304. Briefly: Membrane permeabilization on human ECV304 cells at 24 uM measured every 15 secs for 3 hrs by real time impedance-based plate reader analysis. The data set is classed as functional, cell-based.
Data set [10] has as its system ECV-304. Kind of data set: Membrane permeabilization effect on lysosome of human ECV304 cells assessed as induction of membrane lysis at 3 to 48 uM after 1 hr by N-Acetylglucosaminidase release assay. The data set is classed as functional, cell-based.

In the case of `CCC(C)C(CC(O)CC(=O)O[C@H]1[C@@H](O)[C@@H](C)O[C@@H](OC(=O)[C@]23CCC(C)(C)C[C@H]2C2=CC[C@@H]4[C@@]5(C)CC[C@H](O[C@H]6O[C@H](C(=O)O)[C@@H](O)[C@H](O[C@@H]7OC[C@@H](O)[C@H](O)[C@H]7O)[C@H]6O[C@@H]6O[C@H](CO)[C@H](O)[C@H](O)[C@H]6O)[C@@](C)(C=O)[C@@H]5CC[C@@]4(C)[C@]2(C)C[C@H]3O)[C@@H]1O[C@@H]1O[C@@H](C)[C@H](O[C@@H]2OC[C@@H](O)[C@H](O[C@@H]3OCC(O)(O)[C@H]3O)[C@H]2O)[C@@H](O[C@@H]2O[C@H](CO)[C@@H](O)[C@H](O)[C@H]2O)[C@H]1O)OC(=O)CC(O)CC(O[C@@H]1O[C@@H](CO)[C@H](O)[C@H]1O[C@@H]1O[C@@H](C)[C@H](O)[C@@H](O)[C@H]1O)C(C)CC` (stereo in doubt; form 1), the result in the data set with ECV-304 [1] and with ECV-304 [2] was inactive. Besides, the outcome with ECV-304 [3] and with ECV-304 [4] was Active.
`CCC(C)C(CC(O)CC(=O)O[C@H]1[C@@H](O)[C@@H](C)O[C@@H](OC(=O)[C@]23CCC(C)(C)C[C@H]2C2=CC[C@@H]4[C@@]5(C)CC[C@H](O[C@H]6O[C@H](C(=O)O)[C@@H](O)[C@H](O[C@@H]7OC[C@@H](O)[C@H](O)[C@H]7O)[C@H]6O[C@@H]6O[C@H](CO)[C@H](O)[C@H](O)[C@H]6O)[C@@](C)(C=O)[C@@H]5CC[C@@]4(C)[C@]2(C)C[C@H]3O)[C@@H]1O[C@@H]1O[C@@H](C)[C@H](O[C@@H]2OC[C@@H](O)[C@H](O[C@@H]3OCC(O)(O)[C@H]3O)[C@H]2O)[C@@H](O[C@@H]2O[C@H](CO)[C@@H](O)[C@H](O)[C@H]2O)[C@H]1O)OC(=O)CC(O)CC(O[C@@H]1O[C@@H](CO)[C@H](O)[C@H]1O[C@@H]1O[C@@H](C)[C@H](O)[C@@H](O)[C@H]1O)C(C)CC` (stereo in doubt; form 2) [listing 1 of 2 here]: the hemolysis at 0.5 h, 24 µM in [5] is 61%. Also, the Activity entry in data set [6] is listed as “Toxic”; in data set [7] it was “Non-toxic”.
For `CCC(C)C(CC(O)CC(=O)O[C@H]1[C@@H](O)[C@@H](C)O[C@@H](OC(=O)[C@]23CCC(C)(C)C[C@H]2C2=CC[C@@H]4[C@@]5(C)CC[C@H](O[C@H]6O[C@H](C(=O)O)[C@@H](O)[C@H](O[C@@H]7OC[C@@H](O)[C@H](O)[C@H]7O)[C@H]6O[C@@H]6O[C@H](CO)[C@H](O)[C@H](O)[C@H]6O)[C@@](C)(C=O)[C@@H]5CC[C@@]4(C)[C@]2(C)C[C@H]3O)[C@@H]1O[C@@H]1O[C@@H](C)[C@H](O[C@@H]2OC[C@@H](O)[C@H](O[C@@H]3OCC(O)(O)[C@H]3O)[C@H]2O)[C@@H](O[C@@H]2O[C@H](CO)[C@@H](O)[C@H](O)[C@H]2O)[C@H]1O)OC(=O)CC(O)CC(O[C@@H]1O[C@@H](CO)[C@H](O)[C@H]1O[C@@H]1O[C@@H](C)[C@H](O)[C@@H](O)[C@H]1O)C(C)CC` (stereo in doubt; form 2) [listing 2 of 2 here], the result with ECV-304 [2], in the data set with ECV-304 [8], in the data set on ECV-304 [9] and in the data set on ECV-304 [10] was inactive.

These data come from ChEMBL document CHEMBL2346628, “Real-time analysis of membrane permeabilizing effects of oleanane saponins” (Bioorg Med Chem, 2013).
